Some test systems named below: A549 NSCLC; CCRF-CEM leukemia; EKVX NSCLC; HCT-116 colon; HS 578T breast; MDA-MB-435; RXF 393 renal; SF-295 CNS; SK-MEL-2 melanoma; SK-MEL-5 melanoma; SN12C renal; SW-620 colon; UACC-257 melanoma; UO-31 renal; MALME-3M melanoma; TK-10 renal.
What all share (experiment): NCI anticancer screen, dose series, 48 h

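Compound exposure: 48 hours, 5 concentrations, 96-well plates. TGI: concentration producing complete growth inhibition.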 A value given as a limit tells only on which side of the number the result lay.

As for `CC(=O)C1=C(C)N2C(=NC3=C(CCc4ccccc43)C2c2ccc(F)cc2)S1` (centres undefined), the TGI in the experiment with A549 NSCLC, in the experiment on CCRF-CEM leukemia, in the experiment on EKVX NSCLC, in the experiment on HCT-116 colon, in the experiment on HS 578T breast and in the experiment with MDA-MB-435 was over 100 µM each time. Further, the TGI with RXF 393 renal, with SF-295 CNS, with SK-MEL-2 melanoma, in the experiment with SK-MEL-5 melanoma, with SN12C renal and in the experiment on SW-620 colon was over 100 µM in each case. The TGI in the experiment on UACC-257 melanoma and with UO-31 renal was over 100 µM each time.

In the case of `COC(=O)/C(C#N)=C(\Nc1ccccc1)N1CCOCC1`, the TGI in the experiment with A549 NSCLC, in the experiment with EKVX NSCLC, with HCT-116 colon, in the experiment with HS 578T breast, with MALME-3M melanoma and in the experiment on MDA-MB-435 was over 100 µM each time. Also, the TGI with RXF 393 renal, in the experiment on SF-295 CNS, with SK-MEL-2 melanoma, in the experiment with SK-MEL-5 melanoma, in the experiment with SN12C renal and with SW-620 colon was over 100 µM each time. The TGI in the experiment on TK-10 renal, in the experiment with UACC-257 melanoma and in the experiment with UO-31 renal was over 100 µM throughout.

As to `CC1=CC(=O)CC(C)(C)C1/C=C/C(C)=C/C=C/C(C)=C/C=C/C=C(C)/C=C/C=C(C)/C=C/C1C(C)=CC(=O)CC1(C)C` (centres undefined), the TGI with CCRF-CEM leukemia is over 100 µM; in the experiment with EKVX NSCLC it was over 100 µM; with HCT-116 colon it was 55.1 µM; in the experiment on HS 578T breast it was over 100 µM; with MDA-MB-435, 71.4 µM; in the experiment with RXF 393 renal it was over 100 µM. Further, the TGI in the experiment with SF-295 CNS, in the experiment on SK-MEL-2 melanoma, in the experiment on SK-MEL-5 melanoma, in the experiment on SW-620 colon, in the experiment with TK-10 renal and in the experiment on UACC-257 melanoma was over 100 µM each time. Further, the TGI with UO-31 renal was over 100 µM.

In the case of `CC(NC(=O)/C(=C/c1ccccc1)NC(=O)c1ccccc1)C(=O)O` (centres undefined), the TGI in the experiment on A549 NSCLC, with CCRF-CEM leukemia, with EKVX NSCLC, in the experiment on HCT-116 colon, in the experiment with HS 578T breast and in the experiment on MALME-3M melanoma was over 100 µM throughout. The TGI in the experiment with MDA-MB-435, in the experiment with RXF 393 renal, in the experiment on SF-295 CNS, with SK-MEL-2 melanoma, with SK-MEL-5 melanoma and in the experiment with SN12C renal was over 100 µM each time. Further, the TGI in the experiment with SW-620 colon, in the experiment on UACC-257 melanoma and in the experiment on UO-31 renal was over 100 µM in each case.

As to `CC(C)(O)/C=C\P(=O)(O)O`, the TGI in the experiment on A549 NSCLC, in the experiment with EKVX NSCLC, in the experiment on HCT-116 colon, with HS 578T breast, with MALME-3M melanoma and in the experiment on MDA-MB-435 was over 100 µM each time. For the same molecule, the TGI with RXF 393 renal, with SF-295 CNS, in the experiment on SK-MEL-2 melanoma, in the experiment with SK-MEL-5 melanoma, in the experiment with SN12C renal and in the experiment with SW-620 colon was over 100 µM throughout. For the same molecule, the TGI in the experiment on TK-10 renal and in the experiment on UACC-257 melanoma was over 100 µM throughout.

Regarding `C#C[C@]1(O)CC[C@H]2[C@@H]3CCC4=C/C(=N/OCCN(C)C)CC[C@]4(C)[C@H]3CC[C@@]21C`, the TGI with A549 NSCLC is over 100 µM; in the experiment on CCRF-CEM leukemia it was 83.1 µM; with EKVX NSCLC, over 100 µM; with HCT-116 colon, over 100 µM; in the experiment on HS 578T breast it was over 100 µM; in the experiment with MALME-3M melanoma, 60.6 µM. Moreover, the TGI was 32.2 µM in the experiment with MDA-MB-435; 32.4 µM in the experiment with SF-295 CNS; over 100 µM in the experiment with SK-MEL-2 melanoma; 78.3 µM in the experiment with SK-MEL-5 melanoma; over 100 µM with SN12C renal; over 100 µM in the experiment on SW-620 colon. In addition, the TGI in the experiment on TK-10 renal, in the experiment on UACC-257 melanoma and in the experiment on UO-31 renal was over 100 µM in each case.

`COc1cc(NS(C)(=O)=O)ccc1Nc1cc[nH]c2ccc3nccc3c12`: the TGI was 34.9 µM in the experiment with A549 NSCLC; 40.9 µM in the experiment on CCRF-CEM leukemia; 51.3 µM in the experiment on EKVX NSCLC; 24.7 µM in the experiment on HCT-116 colon; over 100 µM in the experiment on HS 578T breast; 28.7 µM in the experiment with MALME-3M melanoma. In addition, the TGI with MDA-MB-435 stood at 30.1 µM; in the experiment on SF-295 CNS it was 32.9 µM; in the experiment with SK-MEL-2 melanoma, 30.9 µM; in the experiment with SK-MEL-5 melanoma it was 29.8 µM; in the experiment on SN12C renal it was 28.2 µM; with SW-620 colon, 41 µM. Moreover, the values for the TGI with TK-10 renal, in the experiment on UACC-257 melanoma and with UO-31 renal were 30.3 µM, 33.2 µM and over 100 µM, respectively.

On to `Cc1ccc(S(=O)(=O)NC(=O)NCCc2cnc[nH]2)cc1`, for which the TGI in the experiment with A549 NSCLC, in the experiment with EKVX NSCLC, in the experiment on HCT-116 colon, in the experiment with HS 578T breast, in the experiment with MALME-3M melanoma and with MDA-MB-435 was over 100 µM in each case. Also, the TGI in the experiment on RXF 393 renal, with SF-295 CNS, in the experiment on SK-MEL-2 melanoma, in the experiment with SK-MEL-5 melanoma, in the experiment on SW-620 colon and in the experiment with TK-10 renal was over 100 µM each time. The TGI in the experiment on UO-31 renal was over 100 µM.

On to `O=c1[nH]c(Cc2ccccc2)nc2c1sc1nc3ccccc3n12`, for which the TGI in the experiment with A549 NSCLC, in the experiment with CCRF-CEM leukemia, in the experiment on EKVX NSCLC, in the experiment with HCT-116 colon, in the experiment on HS 578T breast and with MDA-MB-435 was over 100 µM throughout. Moreover, the TGI in the experiment with RXF 393 renal, in the experiment on SF-295 CNS, with SK-MEL-2 melanoma, with SK-MEL-5 melanoma, with SN12C renal and with SW-620 colon was over 100 µM throughout. The TGI in the experiment on TK-10 renal, in the experiment with UACC-257 melanoma and in the experiment on UO-31 renal was over 100 µM each time.

In the case of `CCc1n[nH]c(=O)n1/N=C/c1ccccc1O`, the TGI in the experiment on A549 NSCLC was over 100 µM; with CCRF-CEM leukemia, over 100 µM; in the experiment with EKVX NSCLC, over 100 µM; in the experiment on HCT-116 colon, over 100 µM; in the experiment on HS 578T breast, 99 µM; in the experiment on MDA-MB-435 it was over 100 µM. Besides, the TGI in the experiment on RXF 393 renal, in the experiment with SF-295 CNS, in the experiment on SK-MEL-2 melanoma, in the experiment with SK-MEL-5 melanoma, in the experiment with SN12C renal and with SW-620 colon was over 100 µM in each case. In addition, the TGI in the experiment with TK-10 renal, in the experiment on UACC-257 melanoma and with UO-31 renal was over 100 µM each time.

For `COC(=O)C1CCC(=O)N1CN(C(C)=O)c1ccccc1Cl` (centres undefined), the TGI with A549 NSCLC, with EKVX NSCLC, with HCT-116 colon, in the experiment on HS 578T breast, in the experiment with MALME-3M melanoma and in the experiment with MDA-MB-435 was over 100 µM throughout. Also, the TGI in the experiment with RXF 393 renal, with SF-295 CNS, with SK-MEL-2 melanoma, with SK-MEL-5 melanoma, in the experiment with SN12C renal and in the experiment on SW-620 colon was over 100 µM throughout. For the same molecule, the TGI with TK-10 renal, in the experiment on UACC-257 melanoma and in the experiment on UO-31 renal was over 100 µM in each case.

`COc1ccccc1NC(=S)N/N=C/c1c(C)n(C)n(-c2ccccc2)c1=O`: the TGI in the experiment with CCRF-CEM leukemia, with EKVX NSCLC, with HCT-116 colon, with HS 578T breast, in the experiment on MDA-MB-435 and in the experiment with RXF 393 renal was over 100 µM in each case. The TGI in the experiment with SF-295 CNS, in the experiment on SK-MEL-2 melanoma, in the experiment on SK-MEL-5 melanoma, with SW-620 colon, in the experiment with TK-10 renal and in the experiment on UACC-257 melanoma was over 100 µM in each case. Besides, in the experiment with UO-31 renal, the TGI is over 100 µM.

On to `c1ccc([P+](CCSCCSCC[P+](c2ccccc2)(c2ccccc2)c2ccccc2)(c2ccccc2)c2ccccc2)cc1`, for which the TGI in the experiment on A549 NSCLC, with EKVX NSCLC, with HCT-116 colon, with HS 578T breast, in the experiment with MDA-MB-435 and in the experiment on RXF 393 renal was over 100 µM each time. Besides, the TGI in the experiment with SF-295 CNS, in the experiment on SK-MEL-2 melanoma, with SK-MEL-5 melanoma, in the experiment with SN12C renal, in the experiment with SW-620 colon and with TK-10 renal was over 100 µM each time. For the same molecule, the TGI with UACC-257 melanoma and in the experiment on UO-31 renal was over 100 µM in each case.

In the case of `COc1ccc(N=N/C(=N/NC(=O)c2ccc(C)cc2)c2ccc(N(CCC#N)CCC#N)cc2OC)cc1`, the TGI in the experiment on A549 NSCLC, in the experiment on EKVX NSCLC, in the experiment with HCT-116 colon, with HS 578T breast, with MALME-3M melanoma and in the experiment with MDA-MB-435 was over 100 µM each time. Also, the TGI with RXF 393 renal, in the experiment on SF-295 CNS, with SK-MEL-2 melanoma, in the experiment with SK-MEL-5 melanoma, in the experiment with SN12C renal and in the experiment on SW-620 colon was over 100 µM throughout. Further, the TGI in the experiment with TK-10 renal, in the experiment with UACC-257 melanoma and in the experiment with UO-31 renal was over 100 µM in each case.

`CCOC(=O)c1c(N)n(-c2ccccc2)c(=O)n(-c2ccccc2)c1=O`: the TGI in the experiment on A549 NSCLC, in the experiment with HS 578T breast, in the experiment on MALME-3M melanoma, in the experiment on MDA-MB-435, in the experiment on RXF 393 renal and in the experiment with SF-295 CNS was over 100 µM each time. Moreover, the TGI with SK-MEL-2 melanoma, in the experiment on SK-MEL-5 melanoma, with SN12C renal, with SW-620 colon, with TK-10 renal and with UACC-257 melanoma was over 100 µM each time. The molecule also yielded a TGI in the experiment with UO-31 renal of over 100 µM.

For the origin of these results see PubChem BioAssay (NCI).
